Experimental findings from PubChem BioAssay AID743070 (Broad Institute, 2013) are described below.

The experiment can be described thus: growth inhibition of wild-type Mtb, BioA inhibitor project, biotin-free medium, plate reader, dry powder (AID 743070). The settings on record: M. tuberculosis wild type growth; for IC90: measured here: Mtb growth IC90.

Active and inactive are the calls of the source. No rule for the calls is given here. Where only a bound is given, the exact number is not on record here.

For orientation: IC50 means the midpoint of a concentration-inhibition curve. What is called IC90 is the point of the concentration-response curve where the effect stands at 90%. For `COc1cccc(NC(=O)N2CCN(c3ccccc3)CC2)c1`, the IC50 was 50 µM and the IC90 is above 50 µM.

As to `CC(=O)c1ccc(N2CCN(C(=O)c3ccc4c(c3)OCO4)CC2)cc1`, the IC50 was 5 µM and the IC90 amounted to 26.3 µM.

For the compound `O=C(Nc1ccncc1)c1cc2nc(C3CC3)cc(C(F)F)n2n1`, the IC50 was 50 µM and the IC90 was above 50 µM.

For the compound `CC(=O)c1ccc(N2CCN(Cc3ccc4c(c3)OCO4)CC2)cc1`, the IC50 is 31.2 µM and the IC90 is above 50 µM.

For `O=C(Nc1cccnc1)N1CCN(c2ccccc2)CC1`, the IC50 was > 50 µM (inactive) and the IC90 was above 50 µM.

On to `CCOC(=O)N1CCN(C(=O)Nc2ccc3snnc3c2)CC1`, for which the IC50 is 14.6 µM and the IC90 was above 50 µM.

With `CC(=O)c1ccc(N2CCN(C(=O)c3cccc(F)c3)CC2)cc1`, the IC50 is > 50 µM (inactive) and the IC90 was above 50 µM.

Turning to `COc1cccc(NC(=O)CCC2CCN(C(=O)c3ccc(C(C)=O)s3)CC2)c1`, the IC50 is 10.7 µM and the IC90 was above 50 µM.

For the compound `CC(=O)c1ccc(N2CCN(C(=O)c3ccc(Cl)cc3)CC2)cc1`, the IC50 was > 50 µM (inactive) and the IC90 is above 50 µM.

Regarding `Cc1cc(C)n2nc(C(=O)Nc3cccnc3)nc2n1`, the IC50 is > 50 µM (inactive) and the IC90 is above 50 µM.

For `CC(=O)c1ccc(N2CCN(C(=O)c3ccc(Br)cc3)CC2)c(F)c1`, the IC50 was 10.3 µM and the IC90 is above 50 µM.

As to `CC(=O)c1ccc(N2CCN(C(=O)c3ccc(C)cc3)CC2)cc1`, the IC50 was > 50 µM (inactive) and the IC90 is above 50 µM.

For `O=C(c1ccc2c(c1)OCO2)N1CCN(c2ccc(Cl)cc2)CC1`, the IC50 was 11.2 µM and the IC90 amounted to 49.2 µM.

With `O=C(Nc1cccnc1)c1cnn2c(C(F)F)cc(C3CC3)nc12`, the IC50 is > 50 µM (inactive) and the IC90 is above 50 µM.

As to `COc1ccc(C(=O)N2CCN(c3ccc(C(C)=O)cc3)CC2)cc1`, the IC50 was > 50 µM (inactive) and the concentration for an effect of 90% (IC90) was above 50 µM.

Regarding `COc1cc(/C=C/C(=O)Nc2cccnc2)cc(OC)c1OC`, the IC50 was 13.7 µM and the IC90 was above 50 µM.

In the case of `O=C(Nc1ccc2snnc2c1)N1CCCCC1`, the half-inhibitory concentration (IC50) is 50 µM and the IC90 is above 50 µM.

Turning to `Cc1ccc(/C=C(\CCC(=O)O)c2nc3ccccc3s2)cc1`, the IC50 is 2 µM and the IC90 was 4.8 µM.

Take `CC(=O)c1ccc(N2CCN(C(=O)c3ccc4ncsc4c3)CC2)cc1`: the IC50 is 22.2 µM and the IC90 was above 50 µM.

With `Cc1nc2ccc(NC(=O)N3CCN(c4ccccc4)CC3)cc2s1`, the IC50 was 2.1 µM and the IC90 is 6.8 µM.

With `CC(=O)c1ccc(N2CCN(C(=O)c3ccccc3)CC2)cc1`, the IC50 was > 50 µM (inactive) and the IC90 was above 50 µM.

Take `O=C(Nc1ccc2snnc2c1)N1CCOCC1`: the IC50 was > 50 µM (inactive) and the IC90 was above 50 µM.

`Cc1cc(C)n2nc(C(=O)Nc3cccnc3)cc2n1`: the IC50 was 21.8 µM and the IC90 is above 50 µM.

For `Cc1ccc(NC(=O)N2CCN(c3ccccc3)CC2)cc1`, the IC50 is 10.3 µM and the IC90 was above 50 µM.

Regarding `COc1ccc(N2CCN(C(=O)c3ccc4c(c3)OCO4)CC2)cc1`, the IC50 was 9.7 µM and the concentration for an effect of 90% (IC90) was above 50 µM.

With `CC(=O)c1ccc(N2CCN(C(=O)c3ccc4c(c3)OCCO4)CC2)cc1`, the IC50 is > 50 µM (inactive) and the IC90 is above 50 µM.

In the case of `O=C(Nc1ccccc1)N1CCN(c2ccccc2)CC1`, the IC50 was 6.9 µM and the IC90 was above 50 µM.

On to `CC(=O)c1ccc(N2CCN(C(=O)c3cccnc3)CC2)cc1`, for which the IC50 was > 50 µM (inactive) and the IC90 was above 50 µM.

As for `O=C(Nc1ccc(Cl)c(-c2nc3ccccc3[nH]2)c1)c1cccnc1`, the IC50 is 7.4 µM and the concentration for an effect of 90% (IC90) turned out to be 46 µM.

For the compound `COc1ccc(-c2cc(C(F)(F)F)n3nc(C(=O)Nc4cccnc4)cc3n2)cc1`, the IC50 was 2.7 µM and the IC90 was above 50 µM.

Take `O=C(O)CC/C(=C\c1ccccc1[N+](=O)[O-])c1nc2ccccc2s1`: the IC50 is 50 µM and the IC90 is above 50 µM.

For the compound `O=C(Nc1ccc(Cl)cc1)c1cc2nc(C3CC3)cc(C(F)(F)F)n2n1`, the IC50 is 50 µM and the IC90 is above 50 µM.

`O=C(c1ccc2c(c1)OCO2)N1CCN(c2ccc(F)cc2)CC1`: the IC50 is 22 µM and the IC90 is above 50 µM.

For `O=C(Nc1cccc(F)c1)N1CCN(c2ccccc2)CC1`, the IC50 is 8.2 µM and the IC90 was above 50 µM.

`O=C(Nc1ccc2snnc2c1)N1CCN(c2ccccc2)CC1`: the IC50 was 3.2 µM and the IC90 amounted to 17.9 µM.

For `O=C(c1ccc2c(c1)OCO2)N1CCN(c2ccccc2)CC1`, the IC50 is 23.2 µM and the IC90 was above 50 µM.

In the case of `CC(=O)c1ccc(N2CCN(C(=O)c3cccc(Cl)c3)CC2)cc1`, the IC50 is 7.5 µM and the IC90 is 27.5 µM.

Turning to `O=C(Nc1ccc2[nH]ccc2c1)N1CCN(c2ccccc2)CC1`, the IC50 was 7 µM and the IC90 is above 50 µM.

Turning to `O=C(COc1ccc2ccc(=O)oc2c1)N1CCN(c2ccc(F)cc2)CC1`, the IC50 was 50 µM and the IC90 was above 50 µM.

Turning to `O=C(Nc1cccnc1)c1cnn2c(C(F)(F)F)cc(-c3ccccc3)nc12`, the IC50 was > 50 µM (inactive) and the IC90 was above 50 µM.

`Cc1nc2cc(NC(=O)N3CCN(c4ccccc4)CC3)ccc2o1`: the 50% inhibitory concentration (IC50) was 50 µM and the IC90 was above 50 µM.

Take `Cc1ccc(-c2cc(C(F)(F)F)n3nc(C(=O)Nc4cccnc4)cc3n2)cc1`: the IC50 was > 50 µM (inactive) and the IC90 was above 50 µM.

`CC(=O)c1ccc(N2CCN(C(=O)c3ccc(F)cc3)CC2)cc1`: the IC50 was 50 µM and the IC90 was above 50 µM.

As to `O=C(c1ccc2c(c1)OCO2)N1CCN(Cc2ccccc2)CC1`, the IC50 is > 50 µM (inactive) and the IC90 was above 50 µM.

For `COc1cccc(C(=O)N2CCN(c3ccc(C(C)=O)cc3)CC2)c1`, the IC50 is 50 µM and the IC90 is above 50 µM.

Consider `Cc1ccccc1/C=C(\CCC(=O)O)c1nc2ccccc2s1`, for which the IC50 is 8.3 µM and the IC90 worked out at 44.1 µM.

Turning to `CCN(CC)c1ccc2cc(C(=O)c3cccs3)c(=O)oc2c1`, the IC50 is 3.8 µM and the IC90 was found to be 20.7 µM.

In the case of `Cc1ccc(/C=C(\CC(=O)O)c2nc3ccccc3s2)cc1[N+](=O)[O-]`, the IC50 is 6.8 µM and the IC90 was above 50 µM.

With `O=C(Nc1cccc(Cl)c1)N1CCN(c2ccccc2)CC1`, the IC50 is 5 µM and the IC90 was above 50 µM.

As for `O=C(Nc1ccc(F)cc1)N1CCN(c2ccccc2)CC1`, the IC50 was 14.1 µM and the IC90 is above 50 µM.

As for `CCc1ccc(N2CCN(C(=O)c3ccc4c(c3)OCO4)CC2)cc1`, the IC50 is 9.6 µM and the IC90 was above 50 µM.

With `Cc1ccc(/C=C(\CCCC(=O)O)c2nc3ccccc3s2)cc1[N+](=O)[O-]`, the IC50 is 8.4 µM and the IC90 is above 63.3 µM.

`O=C(O)CC/C(=C\c1ccc([N+](=O)[O-])cc1)c1nc2ccccc2s1`: the IC50 is 8.9 µM and the IC90 is 34.4 µM.

As for `COc1ccc(NC(=O)N2CCN(c3ccccc3)CC2)cc1`, the IC50 was 50 µM and the IC90 is above 50 µM.

As to `CC(C)(C)c1ccc(C(=O)N2CCN(c3ccc4c(c3)OCO4)CC2)cc1`, the IC50 was 14.9 µM and the IC90 was above 50 µM.

Turning to `CCc1ccc(C(=O)N2CCN(Cc3ccc4c(c3)OCO4)CC2)cc1`, the half-inhibitory concentration (IC50) was 8.5 µM and the IC90 is above 50 µM.

In the case of `Cc1cccc(/C=C(\CCC(=O)O)c2nc3ccccc3s2)c1`, the IC50 is 3.1 µM and the IC90 was 11 µM.

For `COC(=O)c1c(C(=O)OC)c(-c2cccc(F)c2)n2c1CS(=O)C2` (stereo not given), the IC50 was 15.9 µM and the IC90 was above 50 µM.

Consider `O=C(Nc1cccnc1)c1cc2nc(-c3cccs3)cc(C(F)(F)F)n2n1`, for which the IC50 is > 50 µM (inactive) and the IC90 was above 50 µM.

In the case of `Cc1ccc(/C=C(\CCC(=O)O)c2nc3ccccc3s2)cc1[N+](=O)[O-]`, the IC50 was 1.1 µM and the 90% effect concentration (IC90) was 2.5 µM.
